Assay results reported in patent US9931347B2, “Pharmaceutical compound” (IOmet Pharma Ltd., priority 2013, dated 2018).

Tests used:
[1] = target: T1, TDO (A172 human glioblastoma cells) (Homo sapiens, UniProt P48775); assay: A172 Kynurenine cell based assay; conditions: 500 μM L-tryptophan, 48 hours, kynurenine by Erhlich's reagent
T1 construct: This assay utilised cancer cells which expressed either TDO or IDO; endogenous in cells; host or cells: A172 human glioblastoma cells
Summary of the method: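 A172 glioblastoma cells (30,000/well) cultured at 37° C. in phenol red-free RPMI with 10% FCS, 2 mM L-glutamine and 500 μM L-tryptophan, with or without test compound. After 48 hours, kynurenine in the supernatant was read with Erhlich's reagent (5 min) as absorbance at 490 nm.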

Recombinant human TDO = Recombinant human TDO (Homo sapiens, UniProt P48775); assay: hTDO biochemical coupled assay; conditions: 330 μM L-tryptophan, coupled with kynurenine formamidase
Sequence of Recombinant human TDO (P48775 whole entry): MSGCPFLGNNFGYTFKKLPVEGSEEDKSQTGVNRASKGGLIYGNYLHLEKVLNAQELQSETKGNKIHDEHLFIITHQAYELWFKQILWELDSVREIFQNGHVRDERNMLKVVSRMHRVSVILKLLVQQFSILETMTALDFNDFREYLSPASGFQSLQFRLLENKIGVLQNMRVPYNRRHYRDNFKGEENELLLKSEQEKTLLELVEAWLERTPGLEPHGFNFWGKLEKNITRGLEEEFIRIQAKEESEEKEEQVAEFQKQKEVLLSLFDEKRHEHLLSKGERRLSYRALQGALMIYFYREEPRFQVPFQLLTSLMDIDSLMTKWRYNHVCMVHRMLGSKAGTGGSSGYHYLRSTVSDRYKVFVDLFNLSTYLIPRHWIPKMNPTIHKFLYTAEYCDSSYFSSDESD
Protocol: (§1) Exemplary compounds of the invention were prepared, and tested to determine their effect as TDO and/or IDO inhibitors. Two different assays were employed: 1. a cell-based assay for detecting the effect of test compounds on kynurenine production in two different cancer cell types. This assay utilised cancer cells which expressed either TDO or IDO and as such was used as a means of testing compound activity at these two enzymes in a cell-based context. 2. a TDO and IDO biochemical coupled assay which utilised recombinantly produced and purified TDO and IDO enzymes in combination with the enzyme formamidase. This coupled enzyme system allowed conversion of N-formylkynurenine produced by TDO or IDO activity to kynurenine which was then quantified by fluorescence following addition of Erhlich's Reagent The protocols for these are set out below.
Recombinant human IDO or TDO was incubated in 50 mM KPO4 (pH 7.0), 0.5 mM EGTA, 0.5 mM EDTA, 0.05% Triton™ X100, 20 mM ascorbate, 10 μM methylene blue, 500 U/ml catalase, 50 μg/ml KynB (kynurenine formamidase). TDO assays were carried out in the presence of 330 μM L-tryptophan, while IDO assays had the addition of 45 μM L-tryptophan. After incubation for 17 minutes at room temperature the reactions were stopped by the addition of Erhlich's reagent and incubated at room temperature for 5 minutes before the fluorescence was read (Ex475, Em530).

[2] = target: T2, IDO (SKOV3 human ovarian adenocarcinoma cells, IFN-γ induced) (Homo sapiens, UniProt P14902); assay: SKOV3 Kynurenine cell based assay; conditions: IDO induced by 500 ng/ml IFN-γ, 500 μM L-tryptophan, 48 hours
T2 construct: IDO expression was induced in the SKOV3 cells by the addition of 500 ng/ml IFN-γ; endogenous in cells; host or cells: SKOV3 human ovarian adenocarcinoma cells, induced with IFN-γ
T2 sequence (P14902 whole entry): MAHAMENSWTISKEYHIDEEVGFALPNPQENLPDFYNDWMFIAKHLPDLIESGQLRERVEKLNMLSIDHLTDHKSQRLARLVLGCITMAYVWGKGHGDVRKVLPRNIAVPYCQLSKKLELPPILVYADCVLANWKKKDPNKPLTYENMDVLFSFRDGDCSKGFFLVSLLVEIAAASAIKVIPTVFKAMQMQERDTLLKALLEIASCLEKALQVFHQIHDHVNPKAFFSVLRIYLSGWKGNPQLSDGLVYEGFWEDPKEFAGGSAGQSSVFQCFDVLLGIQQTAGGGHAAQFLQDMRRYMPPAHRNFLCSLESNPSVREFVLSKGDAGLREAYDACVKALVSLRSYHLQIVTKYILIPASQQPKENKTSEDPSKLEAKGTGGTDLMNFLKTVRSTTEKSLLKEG
Summary of the method: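 IFN-γ (500 ng/ml) induced IDO in SKOV3 cells, seeded at 40,000/well in phenol red-free RPMI with 10% FCS, 2 mM L-glutamine and 500 μM L-tryptophan. Cells were incubated with or without compound at 37° C for 48 h. Supernatant kynurenine was detected with Ehrlich's reagent.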

Recombinant human IDO = Recombinant human IDO (Homo sapiens, UniProt P14902); assay: hIDO biochemical coupled assay; conditions: 45 μM L-tryptophan, coupled with kynurenine formamidase
Sequence of Recombinant human IDO (P14902 whole entry): as above
Protocol: as §1
Recombinant human IDO or TDO was incubated in 50 mM KPO4 (pH 7.0), 0.5 mM EGTA, 0.5 mM EDTA, 0.05% Triton™ X100, 20 mM ascorbate, 10 μM methylene blue, 500 U/ml catalase, 50 μg/ml KynB (kynurenine formamidase).

T1 sequence (P48775 whole entry): as the sequence (P48775 whole entry) above

Row | Structure (SMILES) | A172 Kynurenine cell based assay pIC50 [1] | hTDO biochemical assay pIC50 (Recombinant human TDO) | SKOV3 Kynurenine cell based assay pIC50 [2] | hIDO biocehmical assay pIC50 (Recombinant human IDO)
1 | O=C(C(F)F)N1CCC(c2c[nH]c3cc(F)ccc23)CC1 [Compound 260] | ++ (++ = pIC50 5.00-5.99) | + (+ = pIC50 4.00-4.99) | – | –
2 | Cc1cc(C(=O)N2CCC(c3c(C)[nH]c4ccccc34)CC2)no1 [Compound 8] | +− (+− = pIC50 <4.00) | +− (+− = pIC50 <4.00) | + (+ = pIC50 4.00-4.99) | +− (+− = pIC50 <4.00)
3 | CCC(=O)N1CCC(c2c[nH]c3cc(F)ccc23)CC1 [Compound 263] | ++ (++ = pIC50 5.00-5.99) | + (+ = pIC50 4.00-4.99) | ++ (++ = pIC50 5.00-5.99) | –
4 | CN(C)CC(=O)N1CCC(c2c[nH]c3ccccc23)CC1 [Compound 81] | +− (+− = pIC50 <4.00) | + (+ = pIC50 4.00-4.99) | +− (+− = pIC50 <4.00) | +− (+− = pIC50 <4.00)
5 | CCCS(=O)(=O)N1CC=C(c2c[nH]c3cc(F)ccc23)CC1 [Compound 7] | +++ (+++ = pIC50 ≥6.00) | ++ (++ = pIC50 5.00-5.99) | + (+ = pIC50 4.00-4.99) | +− (+− = pIC50 <4.00)
6 | CCCC(=O)N1CCC(c2c[nH]c3ccccc23)CC1 [Compound 83] | + (+ = pIC50 4.00-4.99) | +− (+− = pIC50 <4.00) | +− (+− = pIC50 <4.00) | +− (+− = pIC50 <4.00)
7 | CS(=O)(=O)N1CC=C(c2c[nH]c3cc(Cl)c(F)cc23)CC1 [Compound 227] | ++ (++ = pIC50 5.00-5.99) | + (+ = pIC50 4.00-4.99) | – | –
8 | NS(=O)(=O)N1CCC(c2c[nH]c3cc(F)ccc23)CC1 [Compound 249] | ++ (++ = pIC50 5.00-5.99) | + (+ = pIC50 4.00-4.99) | – | –
9 | COc1ccc2[nH]cc(C3CCN(C(C)=O)CC3)c2c1 [Compound 199] | – | + (+ = pIC50 4.00-4.99) | – | –
10 | Cn1cc(C2=CCN(S(C)(=O)=O)CC2)c2ccccc21 [Compound 204] | – | + (+ = pIC50 4.00-4.99) | – | –
11 | Cn1cc(S(=O)(=O)N2CCC(c3c[nH]c4cc(F)ccc34)CC2)cn1 [Compound 286] | ++ (++ = pIC50 5.00-5.99) | + (+ = pIC50 4.00-4.99) | – | –
12 | O=S(=O)(C1CC1)N1CCC(c2c[nH]c3cc(F)ccc23)CC1 [Compound 288] | ++ (++ = pIC50 5.00-5.99) | + (+ = pIC50 4.00-4.99) | + (+ = pIC50 4.00-4.99) | –
13 | CCCS(=O)(=O)N1CCC(c2c[nH]c3cc(F)ccc23)CC1 [Compound 292] | ++ (++ = pIC50 5.00-5.99) | + (+ = pIC50 4.00-4.99) | + (+ = pIC50 4.00-4.99) | –
14 | CC(=O)N1CC=C(c2c[nH]c3cnccc23)CC1 [Compound 198] | – | + (+ = pIC50 4.00-4.99) | – | –
15 | NS(=O)(=O)N1CCN(c2c[nH]c3ccccc23)CC1 [Compound 311] | ++ (++ = pIC50 5.00-5.99) | + (+ = pIC50 4.00-4.99) | – | –
16 | COc1cccc2[nH]cc(C3=CCN(S(C)(=O)=O)CC3)c12 [Compound 197] | – | + (+ = pIC50 4.00-4.99) | – | –
17 | CN(C)S(=O)(=O)N1CC=C(c2c[nH]c3cc(F)ccc23)CC1 [Compound 251] | +++ (+++ = pIC50 ≥6.00) | + (+ = pIC50 4.00-4.99) | + (+ = pIC50 4.00-4.99) | –
18 | CNS(=O)(=O)N1CCN(c2c[nH]c3ccccc23)CC1 [Compound 295] | ++ (++ = pIC50 5.00-5.99) | + (+ = pIC50 4.00-4.99) | – | –

Row | Structure (SMILES) | A172 Kynurenine cell based assay pIC50 [1] | hTDO biochemical assay pIC50 (Recombinant human TDO) | SKOV3 Kynurenine cell based assay pIC50 [2] | hIDO biocehmical assay pIC50 (Recombinant human IDO)
19 | CC(=O)N1CC=C(c2c[nH]c3ccccc23)CC1 [Compound 210] | ++ (++ = pIC50 5.00-5.99) | ++ (++ = pIC50 5.00-5.99) | – | –
20 | NS(=O)(=O)N1CCC(c2c[nH]c3ccccc23)CC1 [Compound 218] | ++ (++ = pIC50 5.00-5.99) | + (+ = pIC50 4.00-4.99) | – | –
21 | CS(=O)(=O)N1CCC(c2c[nH]c3cc(F)c(F)cc23)CC1 [Compound 236] | ++ (++ = pIC50 5.00-5.99) | + (+ = pIC50 4.00-4.99) | + (+ = pIC50 4.00-4.99) | –
22 | CNCC1CN(c2c[nH]c3ccccc23)CCN1S(C)(=O)=O (stereo not shown) [Compound 319] | ++ (++ = pIC50 5.00-5.99) | + (+ = pIC50 4.00-4.99) | – | –
23 | CS(=O)(=O)N1CC=C(c2c[nH]c3ccncc23)CC1 [Compound 170] | ++ (++ = pIC50 5.00-5.99) | – | + (+ = pIC50 4.00-4.99) | +− (+− = pIC50 <4.00)
24 | COCCS(=O)(=O)N1CCC(c2c[nH]c3cc(F)ccc23)CC1 [Compound 285] | ++ (++ = pIC50 5.00-5.99) | + (+ = pIC50 4.00-4.99) | + (+ = pIC50 4.00-4.99) | –
25 | CNS(=O)(=O)N1CCC(c2c[nH]c3cc(F)ccc23)CC1 [Compound 257] | ++ (++ = pIC50 5.00-5.99) | + (+ = pIC50 4.00-4.99) | + (+ = pIC50 4.00-4.99) | –
26 | Cc1[nH]c2ccccc2c1C1=CCN(S(C)(=O)=O)CC1 [Compound 160] | +− (+− = pIC50 <4.00) | – | + (+ = pIC50 4.00-4.99) | +− (+− = pIC50 <4.00)
27 | CC(=O)N1CC=C(c2c[nH]c3cc(C)ccc23)CC1 [Compound 205] | + (+ = pIC50 4.00-4.99) | + (+ = pIC50 4.00-4.99) | – | –
28 | O=C(CO)N1CCC(c2c[nH]c3cc(F)ccc23)CC1 [Compound 269] | ++ (++ = pIC50 5.00-5.99) | + (+ = pIC50 4.00-4.99) | + (+ = pIC50 4.00-4.99) | –
29 | O=C(C1CC1)N1CCC(c2c[nH]c3cc(F)ccc23)CC1 [Compound 265] | ++ (++ = pIC50 5.00-5.99) | + (+ = pIC50 4.00-4.99) | + (+ = pIC50 4.00-4.99) | –
30 | CS(=O)(=O)N1CC=C(c2c[nH]c3ccccc23)CC1 [Compound 209] | ++ (++ = pIC50 5.00-5.99) | ++ (++ = pIC50 5.00-5.99) | – | –
31 | Cc1noc(N2CCC(c3c[nH]c4cc(F)ccc34)CC2)n1 [Compound 183] | ++ (++ = pIC50 5.00-5.99) | – | + (+ = pIC50 4.00-4.99) | +− (+− = pIC50 <4.00)
32 | O=S1(=O)CCC2CN(c3c[nH]c4ccccc34)CCN21 (stereo not shown) [Compound 304] | ++ (++ = pIC50 5.00-5.99) | + (+ = pIC50 4.00-4.99) | – | –
33 | CNS(=O)(=O)N1CC=C(c2c[nH]c3cc(F)ccc23)CC1 [Compound 256] | ++ (++ = pIC50 5.00-5.99) | + (+ = pIC50 4.00-4.99) | + (+ = pIC50 4.00-4.99) | –
34 | CN1CCN(c2c[nH]c3ccccc23)CC1=O [Compound 189] | + (+ = pIC50 4.00-4.99) | – | +− (+− = pIC50 <4.00) | +− (+− = pIC50 <4.00)
35 | CS(=O)(=O)N1CCCC(c2c[nH]c3cc(F)ccc23)CC1 (stereo not shown) [Compound 182] | ++ (++ = pIC50 5.00-5.99) | – | + (+ = pIC50 4.00-4.99) | +− (+− = pIC50 <4.00)
36 | CC(=O)N1CCCN(c2c[nH]c3ccccc23)CC1 [Compound 308] | – | + (+ = pIC50 4.00-4.99) | + (+ = pIC50 4.00-4.99) | –
